{"source": "patent US20100047306A1", "about": "“PHARMACEUTICAL COMPOSITIONS COMPRISING BISPHOSPONATES” (NOVARTIS AG, priority 2006, published 2010)", "system": "Wistar rats", "assay": "Tolerability study of calcium zoledronate microparticles in rats after s.c. administration (skin fold thickness)", "format": "in vivo, rat", "settings": "s.c. injection of suspension, 60 microgram, female Wistar rats", "protocol": "The microparticles of Examples 2 and 3 are suspended in a vehicle containing sodium carboxy methylcellulose, D-mannitol, Pluronics F68 and water for injection. 200 microliters of these suspensions were injected subcutaneously to the shaved skin at the left dorsal side of 8 weeks old female virgin Wistar rats (body weight approximately 220 g). In this way 1 mg dose (per animal) of zoledronic acid of the 15% calcium zoledronate microparticles (Example 3) and 2 mg dose (per animal) of zoledronic acid of the 10% calcium zoledronate microparticles (Example 2) were applied to a group of 6 animals per formulation. The thickness of the skin will be measured by a micro-caliper at the side of injection and the contra-lateral non-injected side. As reference a suspension of non-encapsulated drug substance is injected in a dose of 60 microgram. In addition, placebo microparticles made out of PLGA 75:25 (IV 0.68 dL/g) are also injected as control.", "data": [{"smiles": "O=P([O-])(O)C(O)(Cn1ccnc1)P(=O)([O-])O.[Ca+2]", "note": "[non-encapsulated drug substance, calcium zoledronate]", "values": [{"measurement": "swelling of the skin / local skin irritation", "result": "strong swelling of the skin"}]}]}
